Test results reported in publication PMC3656107, “Polymorphisms in the F8 Gene and MHC-II Variants as Risk Factors for the Development of Inhibitory Anti-Factor VIII Antibodies during the Treatment of Hemophilia A: A Computational Assessment” (PLoS Computational Biology, 2013).

What was measured:
MHC-II DRB1*04:01 [1] = molecular target: T1, MHC-II DRB1*04:01 (Homo sapiens, UniProt P01903+P01911, A100K/A169T/F76Y/I96L/K127E/L162R/M171V/N62H/P40V/Q125Y/R42H/S133A/S149N/S66Y/V115G/V209L/W38E); assay: Cell-free REVEAL class II binding assay; conditions: signal of test peptide as percentage of allele-specific positive control peptide, fluorescence, conformation-specific monoclonal antibody
Excerpt: (§1) We used a proprietary high throughput, REVEAL binding assay (ProImmune, www.proimmune.com) to estimate the binding of individual test peptides to the following MHC-II variants: DRB1*03:01, DRB1*04:01, DRB1*07:01, DRB1*11:01, DRB1*15:01 and DRB1*15:03 [28]. Detection of a peptide binding to each MHC-II protein is based on the presence or absence of the native conformation of the MHC-peptide complex. The peptide-MHC-II complex is detected by an increase in a fluorescence signal due to the binding of a specific monoclonal antibody. Each test-peptide is given a score relative to a positive control peptide, which is a known T-cell epitope for that MHC-II molecule. The score is reported quantitatively as a percentage of the signal generated by the test peptide compared with the positive control peptide. Assay performance is evaluated by including in each set of measurements an intermediate control peptide which is known to bind the MHC-II molecule but with a lower affinity than the positive control peptide. Note that the positive control peptide used to determine the binding score is different from the positive control peptides depicted in the figures, which are known T-cell epitopes identified in the FVIII molecule.

MHC-II DRB1*15:01 [2] = molecular target: T2, MHC-II DRB1*15:01 (Homo sapiens, UniProt P01903+P01911); assay: Cell-free REVEAL class II binding assay; conditions: signal of test peptide as percentage of allele-specific positive control peptide, fluorescence, conformation-specific monoclonal antibody
T2 construct: purchased ProImmune
Excerpt: as §1

MHC-II DRB1*03:01 [3] = molecular target: T3, MHC-II DRB1*03:01 (Homo sapiens, UniProt P01903+P01911, A100K/A102G/A103R/A169T/F55Y/I96L/K41T/L162R/M171V/P40S/Q125H/Q178H/Q39Y/R42S/S66N/T106N/T262R/W38E/Y61H); assay: Cell-free REVEAL class II binding assay; conditions: signal of test peptide as percentage of allele-specific positive control peptide, fluorescence, conformation-specific monoclonal antibody
T3 sequence (P01903 26-254 limits assumed, other chains not shown): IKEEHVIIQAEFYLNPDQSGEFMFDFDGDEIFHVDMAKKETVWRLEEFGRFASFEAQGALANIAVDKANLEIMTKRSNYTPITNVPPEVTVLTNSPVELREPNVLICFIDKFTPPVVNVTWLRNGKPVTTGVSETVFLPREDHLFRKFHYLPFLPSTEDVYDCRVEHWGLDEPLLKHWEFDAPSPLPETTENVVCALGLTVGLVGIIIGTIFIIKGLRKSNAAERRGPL
Excerpt: as §1

MHC-II DRB1*11:01 [4] = molecular target: T4, MHC-II DRB1*11:01 (Homo sapiens, UniProt P01903+P01911, A100R/A169T/A87E/I96F/K41T/L162R/M171V/P40S/Q125H/Q178H/Q39Y/Q99D/R42S/S66Y/T262R/V115G/W38E); assay: Cell-free REVEAL class II binding assay; conditions: signal of test peptide as percentage of allele-specific positive control peptide, fluorescence, conformation-specific monoclonal antibody
T4 sequence (P01903 26-254 limits assumed, other chains not shown): as above
Excerpt: as §1

MHC-II DRB1*15:03 [5] = molecular target: T5, MHC-II DRB1*15:03 (Homo sapiens, UniProt P01903+P01911, Y59H); assay: Cell-free REVEAL class II binding assay; conditions: signal of test peptide as percentage of allele-specific positive control peptide, fluorescence, conformation-specific monoclonal antibody
T5 construct: purchased ProImmune
T5 sequence (P01903 26-254, other chains not shown): as the sequence (P01903 26-254 limits assumed, other chains not shown) above
Excerpt: as §1

MHC-II DRB1*07:01 [6] = molecular target: T6, MHC-II DRB1*07:01 (Homo sapiens, UniProt P01903+P01911, A100R/A102G/A103Q/D57E/D86V/E43K/F76Y/K127E/L162R/M171V/P40G/Q125H/Q99D/R33Q/R42Y/R54Q/S133A/S66F/T210M/V115G/Y107V/Y59L/Y89S); assay: Cell-free REVEAL class II binding assay; conditions: signal of test peptide as percentage of allele-specific positive control peptide, fluorescence, conformation-specific monoclonal antibody
Excerpt: as §1

MHC-II DRB1*04:01 [7] = molecular target: T1, MHC-II DRB1*04:01; assay: Cell-free REVEAL class II stability assay; conditions: half-life of peptide-MHC-II complex (h, capped at 120) x Binding Score / 100, conformational ELISA
Protocol: (§2) We measured the half-life of each peptide-MHC-II complex using REVEAL peptide-MHC affinity assays developed by ProImmune Ltd. (Oxford, UK). On-rates of peptides were measured over a 96-hr period at 10°C. A unique positive control peptide was used for each MHC-II allele. Samples of assembling peptide-MHC complexes were taken at defined time points and snap-frozen in liquid nitrogen prior to analysis. Assembly of peptide-MHC complexes was detected using a conformational ELISA involving an anti-HLA antibody. On-rates were calculated by fitting data to a one-phase association curve: [drawing 1] To determine the off-rates of the peptides, samples of dissociating complexes were taken at defined time points and frozen in liquid nitrogen prior to analysis. Percent denaturation of peptide-MHC complexes was also detected using a conformational ELISA. Off-rates were calculated by fitting data to a one-phase dissociation curve: [drawing 2] On- and off-rate half-life values (t1/2) were calculated from the rate constant (k) using the following equation: [drawing 3] To obtain a normalized stability score, the half-life values were multiplied by the Binding Score (see above) and divided by 100.

MHC-II DRB1*15:01 [8] = molecular target: T2, MHC-II DRB1*15:01; assay: Cell-free REVEAL class II stability assay; conditions: half-life of peptide-MHC-II complex (h, capped at 120) x Binding Score / 100, conformational ELISA
Protocol: as §2

MHC-II DRB1*03:01 [9] = molecular target: T3, MHC-II DRB1*03:01; assay: Cell-free REVEAL class II stability assay; conditions: half-life of peptide-MHC-II complex (h, capped at 120) x Binding Score / 100, conformational ELISA
Protocol: as §2

MHC-II DRB1*11:01 [10] = molecular target: T4, MHC-II DRB1*11:01; assay: Cell-free REVEAL class II stability assay; conditions: half-life of peptide-MHC-II complex (h, capped at 120) x Binding Score / 100, conformational ELISA
Protocol: as §2

MHC-II DRB1*15:03 [11] = molecular target: T5, MHC-II DRB1*15:03; assay: Cell-free REVEAL class II stability assay; conditions: half-life of peptide-MHC-II complex (h, capped at 120) x Binding Score / 100, conformational ELISA
Protocol: as §2

MHC-II DRB1*07:01 [12] = molecular target: T6, MHC-II DRB1*07:01; assay: Cell-free REVEAL class II stability assay; conditions: half-life of peptide-MHC-II complex (h, capped at 120) x Binding Score / 100, conformational ELISA
Protocol: as §2

Row | Sequence | Binding Score (MHC-II DRB1*04:01 [1]) [%] | Binding Score (MHC-II DRB1*15:01 [2]) [%] | Binding Score (MHC-II DRB1*03:01 [3]) [%] | Binding Score (MHC-II DRB1*11:01 [4]) [%] | Binding Score (MHC-II DRB1*15:03 [5]) [%] | Binding Score (MHC-II DRB1*07:01 [6]) [%] | Stability Index (MHC-II DRB1*04:01 [7]) | Stability Index (MHC-II DRB1*15:01 [8]) | Stability Index (MHC-II DRB1*03:01 [9]) | Stability Index (MHC-II DRB1*11:01 [10]) | Stability Index (MHC-II DRB1*15:03 [11]) | Stability Index (MHC-II DRB1*07:01 [12])
1 | IIMYSLDGKKWQTYR [synthetic wild type FVIII 15 mer peptide] | 8.3 | 1853.0 | 6.0 | 23.3 | 47.8 | 0.0 | 0.7 | 2223.6 | 1.7 | 1.4 | 57.3 | 0.1
2 | KMVYEDTLTLFPFSG [synthetic wild type FVIII 15 mer peptide] | 29.7 | 3.0 | 57.6 | 11.7 | 0.0 | 0.0 | 8.3 | 0.2 | 21.0 | 0.0 | 0.0 | 0.0
3 | KTDPWFAHRTPMPKI [synthetic wild type FVIII 15 mer peptide, region of ns-SNP R776G] | 8.2 | 0.1 | 0.0 | 0.5 | 0.2 | 4.0 | 0.5 | 0.1 | 0.0 | 0.1 | 0.0 | 1.2
4 | LFLLSTRQNVEGSYD [synthetic wild type FVIII 15 mer peptide, region of ns-SNP D1241E] | 17.9 | 1.0 | 30.5 | 92.0 | 0.2 | 0.3 | 2.8 | 0.1 | 17.5 | 23.6 | 0.0 | 0.3
5 | LQVDFQKTMKVTGVT [synthetic wild type FVIII 15 mer peptide, region of ns-SNP M2238V] | 11.6 | 4.4 | 30.7 | 235.0 | 1.5 | 0.1 | 0.9 | 0.3 | 13.5 | 62.0 | 0.0 | 0.1
6 | LSTRQNVEGSYDGAY [synthetic wild type FVIII 15 mer peptide, region of ns-SNP D1241E] | 15.2 | 0.0 | 0.0 | 0.2 | 0.0 | 0.0 | 3.2 | 0.0 | 0.0 | 0.0 | 0.0 | 0.0
7 | MKVTGVTTQGVKSLL [synthetic wild type FVIII 15 mer peptide, region of ns-SNP M2238V] | 7.8 | 1.4 | 0.0 | 0.1 | 0.0 | 0.0 | 0.8 | 0.8 | 0.0 | 0.0 | 0.0 | 0.0
8 | NNPKEWLQVDFQKTM [synthetic wild type FVIII 15 mer peptide, region of ns-SNP M2238V] | 1.7 | 0.1 | 12.6 | 3.5 | 0.1 | 0.6 | 0.1 | 0.2 | 0.0 | 0.1 | 0.1 | 0.1
9 | PENDIEKTDPWFAHR [synthetic wild type FVIII 15 mer peptide, region of ns-SNP R776G] | 0.7 | 0.1 | 0.0 | 2.9 | 0.3 | 0.0 | 0.1 | 0.1 | 0.0 | 0.1 | 0.0 | 0.0
10 | PIIARYIRLHPTHYS [synthetic wild type FVIII 15 mer peptide] | 25.4 | 917.4 | 0.3 | 118.8 | 11.1 | 0.0 | 6.9 | 1100.9 | 0.0 | 9.0 | 13.3 | 0.0
11 | PLLTRYLRIHPQSWV [synthetic wild type FVIII 15 mer peptide] | 12.1 | 714.7 | 0.0 | 62.8 | 10.7 | 1.7 | 1.4 | 857.7 | 0.0 | 8.8 | 12.8 | 2.0
12 | PPLLTRYLRIHPQSW [synthetic wild type FVIII 15 mer peptide] | 9.6 | 403.3 | 0.0 | 42.2 | 21.7 | 7.0 | 0.9 | 483.9 | 0.0 | 5.9 | 26.0 | 8.4
